Measurements: the NIST ThermoML archive (doi:10.1021/je700036v)
Numbers after ± are expanded uncertainties.

Test: refractive index (Na D-line) (dimensionless)
Conditions: 293.1 K; 101.33 kPa; Liquid; Standard Abbe refractometry

refractive index | SMILES
1.484 ± 0.0007 | O=CN1CCOCC1 [N-formylmorpholine]
1.423 ± 0.0007 | CC1CCCCC1 [methylcyclohexane]

SMILES | refractive index
Cc1ccccc1 [toluene] | 1.4873 ± 0.0007
